Test results reported in patent publication US20150045553A1, “PHENYLTRIAZOLE DERIVATIVE” (TOSHO PHARMACEUTICAL CO., LTD, priority 2011, published 2015).
Where a name gives a salt, the structure may show the parent alone.

Biological target: T1, H3 receptor (Rattus norvegicus, UniProt Q9QYN8)
T1 construct: The frontal cortex dissected from rats was homogenized; from tissue; host or cells: rat frontal cortex membrane fraction
Experiment: Rat H3 receptor binding test (N-α-methyl[3H]histamine, frontal cortex membrane fraction)
Details: N-α-methyl[3H]histamine 0.75 nM, room temperature, an hour
Description: (Test 1: Rat H3 Receptor Binding Test)
The frontal cortex dissected from rats was homogenized with a Teflon (registered trademark) homogenizer in a 50 mM Tris-HCl buffer solution (pH 7.4) containing a protease inhibitor (Complete EDTA-free; Roche Diagnostics) and 5 mM EDTA. The homogenate was centrifuged at 48,000×g for 15 minutes. The supernatant was removed and the pellet was suspended in a 50 mM Tris-HCl buffer solution (pH 7.4) containing 5 mM EDTA and centrifuged at 48,000×g for 15 minutes. The supernatant was removed and the pellet was suspended in a 50 mM Tris-HCl buffer solution (pH 7.4) containing 5 mM EDTA to give a membrane fraction. The membrane fraction (the protein content in the final reaction mixture: 75 μg), N-α-methyl[^3H]histamine (PerkinElmer; final concentration: 0.75 nM) and a test drug were mixed and subjected to reaction at room temperature for an hour. After the end of the reaction, the reaction mixture was suction filtered through a 96-well GF/C filter plate pretreated with 0.3% polyethyleneimine; the filters were then washed five times with a 50 mM Tris-HCl buffer solution (pH 7.4) containing 5 mM EDTA. After the washing, the filters were dried and a scintillator was added to measure the residual radioactivity on the filter with TopCount (PerkinElmer).
The residual radioactivity in the presence of 10 μM thioperamide was taken as indicative of nonspecific binding and the difference from the residual radioactivity in the absence of thioperamide was taken as indicative of specific binding. Each of the test drugs was dissolved and diluted in DMSO at varying concentrations to plot a dose-response curve from the corresponding residual radioactivities; the concentration of test drug that inhibited the specific binding by 50% (IC50) was determined from this curve.

T1 sequence (Q9QYN8 whole entry): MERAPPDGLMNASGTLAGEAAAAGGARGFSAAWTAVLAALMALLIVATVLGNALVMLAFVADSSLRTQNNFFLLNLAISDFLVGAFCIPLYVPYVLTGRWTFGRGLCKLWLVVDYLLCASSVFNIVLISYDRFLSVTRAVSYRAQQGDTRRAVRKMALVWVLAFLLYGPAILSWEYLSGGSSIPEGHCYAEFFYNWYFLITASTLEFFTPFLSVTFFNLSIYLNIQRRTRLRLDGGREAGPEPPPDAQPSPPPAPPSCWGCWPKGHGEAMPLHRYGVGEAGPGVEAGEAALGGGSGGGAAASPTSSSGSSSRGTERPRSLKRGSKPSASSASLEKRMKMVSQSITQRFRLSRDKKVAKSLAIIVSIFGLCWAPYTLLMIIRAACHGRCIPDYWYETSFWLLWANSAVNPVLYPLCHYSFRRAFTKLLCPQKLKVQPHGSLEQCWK

| IC50 | Structure (SMILES) |
| --- | --- |
| 0.5 nM | O=C(c1ncn(-c2ccc(OC3CCN(C4CCC4)CC3)cc2)n1)N1CCC1 [Compound No. 35, azetidin-1-yl(1-{4-[(1-cyclobutylpiperidin-4-yl)oxy]phenyl}-1H-1,2,4-triazol-3-yl)methanone] |
| 33 nM | CC(C)(C)N1CCC(Oc2ccc(-n3cc(C(=O)N4CCCC4)nn3)cc2)CC1 [Compound No. 28, (1-{4-[(1-tert-butylpiperidin-4-yl)oxy]phenyl}-1H-1,2,3-triazol-4-yl)(pyrrolidin-1-yl)methanone] |
| 70 nM | CCOC(=O)c1cn(-c2ccc(OC3CCN(C(C)(C)C)CC3)cc2)nn1 [Compound No. 27, ethyl 1-{4-[(1-tert-butylpiperidin-4-yl)oxy]phenyl}-1H-1,2,3-triazole-4-carboxylate] |
| 7.4 nM | CCOC(=O)c1cn(-c2ccc(OCCCN3CCC[C@H]3C)cc2)nn1 [Compound No. 24, ethyl 1-(4-{3-[(2R)-2-methylpyrrolidin-1-yl]propoxy}phenyl)-1H-1,2,3-triazole-4-carboxylate] |
| 126 nM | CNC(=O)c1cn(-c2ccc(OC3CCN(C(C)(C)C)CC3)cc2)nn1 [Compound No. 30, 1-{4-[(1-tert-butylpiperidin-4-yl)oxy]phenyl}-N-methyl-1H-1,2,3-triazole-4-carboxamide] |
| 6.4 nM | O=C(c1cn(-c2ccc(OC3CCN(C4CCC4)CC3)cc2)nn1)N1CCOCC1 [Compound No. 25, (1-{4-[(1-cyclobutylpiperidin-4-yl)oxy]phenyl}-1H-1,2,3-triazol-4-yl)(morpholin-4-yl)methanone] |
| 48 nM | CC(C)(C)N1CCC(Oc2ccc(-n3cc(C(=O)N4CCC4)nn3)cc2)CC1 [Compound No. 29, azetidin-1-yl(1-{4-[(1-tert-butylpiperidin-4-yl)oxy]phenyl}-1H-1,2,3-triazol-4-yl)methanone] |
| 7.3 nM | CC(C)(C)NC(=O)c1ncn(-c2ccc(OC3CCN(C4CCC4)CC3)cc2)n1 [Compound No. 37, N-tert-butyl-1-{4-[(1-cyclobutylpiperidin-4-yl)oxy]phenyl}-1H-1,2,4-triazole-3-carboxamide] |
| 67 nM | CC(C)(C)N1CCC(Oc2ccc(-n3cc(C#N)nn3)cc2)CC1 [Compound No. 32, 1-{4-[(1-tert-butylpiperidin-4-yl)oxy]phenyl}-1H-1,2,3-triazole-4-carbonitrile] |
| 158 nM | O=C(O)c1ncn(-c2ccc(OC3CCN(C4CCC4)CC3)cc2)n1 [Compound No. 38, 1-{4-[(1-cyclobutylpiperidin-4-yl)oxy]phenyl}-1H-1,2,4-triazole-3-carboxylic acid hydrochloride] |
| 37 nM | Cc1c(C(=O)N2CCC2)nnn1-c1ccc(OC2CCN(C3CCC3)CC2)cc1 [compound 10, azetidin-1-yl(1-{4-[(1-cyclobutylpiperidin-4-yl)oxy]phenyl}-5-methyl-1H-1,2,3-triazol-4-yl)methanone] |
| 8.9 nM | C[C@@H]1CCCN1CCCOc1ccc(-n2cc(C(=O)N3CCCC3)nn2)cc1 [compound 15, [1-(4-{3-[(2R)-2-methylpyrrolidin-1-yl]propoxy}phenyl)-1H-1,2,3-triazol-4-yl](pyrrolidin-1-yl)methanone] |
| 18 nM | NC(=O)c1cn(-c2ccc(OC3CCN(C4CCC4)CC3)cc2)nn1 [Compound No. 20, 1-{4-[(1-cyclobutylpiperidin-4-yl)oxy]phenyl}-1H-1,2,3-triazole-4-carboxamide] |
| 6.4 nM | N#Cc1ncn(-c2ccc(OC3CCN(C4CCC4)CC3)cc2)n1 [Compound No. 41, 1-{4-[(1-cyclobutylpiperidin-4-yl)oxy]phenyl}-1H-1,2,4-triazole-3-carbonitrile] |
| 10 nM | O=C(c1ncn(-c2ccc(OC3CCN(C4CCC4)CC3)cc2)n1)N1CCCCC1 [Compound No. 36, (1-{4-[(1-cyclobutylpiperidin-4-yl)oxy]phenyl}-1H-1,2,4-triazol-3-yl)(piperidin-1-yl)methanone] |
| 16 nM | O=C(Cc1cn(-c2ccc(OC3CCN(C4CCC4)CC3)cc2)nn1)N1CCCC1 [compound 12, 2-(1-[4-[(1-cyclobutylpiperidin-4-yl)oxy]phenyl}-1H-1,2,3-triazol-4-yl)-1-(pyrrolidin-1-yl)ethanone] |
| 5.1 nM | CCOc1cn(-c2ccc(OC3CCN(C4CCC4)CC3)cc2)nn1 [Compound No. 3, 1-cyclobutyl-4-[4-(4-ethoxy-1H-1,2,3-triazol-1-yl)phenoxy]piperidine] |
| 11 nM | NC(=O)c1ncn(-c2ccc(OC3CCN(C4CCC4)CC3)cc2)n1 [Compound No. 39, 1-{4-[(1-cyclobutylpiperidin-4-yl)oxy]phenyl}-1H-1,2,4-triazole-3-carboxamide] |

| IC50 | Structure (SMILES) |
| --- | --- |
| 4.9 nM | CC(C)(C)c1cn(-c2ccc(OC3CCN(C4CCC4)CC3)cc2)nn1 [compound 7, 4-[4-(4-tert-butyl-1H-1,2,3-triazol-1-yl)phenoxy]-1-cyclobutylpiperidine] |
| 5.5 nM | CN(C)C(=O)c1cn(-c2ccc(OC3CCN(C4CCC4)CC3)cc2)nn1 [Compound No. 26, 1-{4-[(1-cyclobutylpiperidin-4-yl)oxy]phenyl}-N,N-dimethyl-1H-1,2,3-triazole-4-carboxamide] |
| 19 nM | CNC(=O)c1nnn(-c2ccc(OC3CCN(C4CCC4)CC3)cc2)c1C [compound 11, 1-{4-[(1-cyclobutylpiperidin-4-yl)oxy]phenyl}-N,5-dimethyl-1H-1,2,3-triazole-4-carboxamide] |
| 122 nM | CC(C)(C)N1CCC(Oc2ccc(-n3cc(C(N)=O)nn3)cc2)CC1 [Compound No. 31, 1-{4-[(1-tert-butylpiperidin-4-yl)oxy]phenyl}-1H−1,2,3-triazole-4-carboxamide] |
| 24 nM | Cc1c(C(=O)N2CCCC2)nnn1-c1ccc(OC2CCN(C3CCC3)CC2)cc1 [compound 9, (1-{4-[(1-cyclobutylpiperidin-4-yl)oxy]phenyl}-5-methyl-1H-1,2,3-triazol-4-yl)(pyrrolidin-1-yl)methanone] |
| 5.3 nM | CCOC(=O)c1cn(-c2ccc(OC3CCN(C4CCC4)CC3)cc2)nn1 [Compound No. 1, ethyl 1-{4-[(1-cyclobutylpiperidin-4-yl)oxy]phenyl}-1H-1,2,3-triazole-4-carboxylate] |
| 7.7 nM | CC(=O)c1cn(-c2ccc(OC3CCN(C4CCC4)CC3)cc2)nn1 [compound 5, 1-(1-[4-[(1-cyclobutylpiperidin-4-yl)oxy]phenyl}-1H-1,2,3-triazol-4-yl)ethanone] |
| 4.5 nM | CCOC(=O)c1ncn(-c2ccc(OC3CCN(C4CCC4)CC3)cc2)n1 [Compound No. 33, ethyl 1-{4-[(1-cyclobutylpiperidin-4-yl)oxy]phenyl}-1H-1,2,4-triazole-3-carboxylate] |
| 17 nM | c1cn(-c2ccc(OC3CCN(C4CCC4)CC3)cc2)nn1 [Compound No. 23, 1-cyclobutyl-4-[4-(1H-1,2,3-triazol-1-yl)phenoxy]piperidine] |
| 32 nM | CNC(=O)Cc1cn(-c2ccc(OC3CCN(C4CCC4)CC3)cc2)nn1 [compound 14, 2-(1-{4-[(1-cyclobutylpiperidin-4-yl)oxy]phenyl}-1H-1,2,3-triazol-4-yl)-N-methylacetamide] |
| 13 nM | N#Cc1cn(-c2ccc(OC3CCN(C4CCC4)CC3)cc2)nn1 [Compound No. 21, 1-{4-[(1-cyclobutylpiperidin-4-yl)oxy]phenyl}-1H-1,2,3-triazole-4-carbonitrile hydrochloride] |
| 12 nM | CC(C)(O)c1cn(-c2ccc(OC3CCN(C4CCC4)CC3)cc2)nn1 [compound 6, 2-(1-{4-[(1-cyclobutylpiperidin-4-yl)oxy]phenyl}-1H-1,2,3-triazol-4-yl)propan-2-ol] |
| 16 nM | C[C@@H]1CCCN1CCCOc1ccc(-n2cc(C(=O)N3CCC3)nn2)cc1 [compound 16, azetidin-1-yl[1-(4-{3-[(2R)-2-methylpyrrolidin-1-yl]propoxy}phenyl)-1H-1,2,3-triazol-4-yl]methanone] |
| 132 nM | O=C(O)c1cn(-c2ccc(OC3CCN(C4CCC4)CC3)cc2)nn1 [Compound No. 17, 1-{4-[(1-cyclobutylpiperidin-4-yl)oxy]phenyl}-1H-1,2,3-triazole-4-carboxylic acid hydrochloride] |
| 7.4 nM | COCc1cn(-c2ccc(OC3CCN(C4CCC4)CC3)cc2)nn1 [Compound No. 2, 1-cyclobutyl-4-{4-[4-(methoxymethyl)-1H-1,2,3-triazol-1-yl]phenoxy}piperidine] |
| 1.3 nM | O=C(c1ncn(-c2ccc(OC3CCN(C4CCC4)CC3)cc2)n1)N1CCCC1 [Compound No. 34, (1-{4-[(1-cyclobutylpiperidin-4-yl)oxy]phenyl}-1H-1,2,4-triazol-3-yl)(pyrrolidin-1-yl)methanone] |
| 6.4 nM | CC(=O)c1ncn(-c2ccc(OC3CCN(C4CCC4)CC3)cc2)n1 [Compound No. 40, 1-(1-{4-[(1-cyclobutylpiperidin-4-yl)oxy]phenyl}-1H-1,2,4-triazol-3-yl)ethanone hydrochloride] |
| 14 nM | O=C(c1cn(-c2ccc(OC3CCN(C4CCC4)CC3)cc2)nn1)N1CCC1 [Compound No. 18, azetidin-1-yl(1-{4-[(1-cyclobutylpiperidin-4-yl)oxy]phenyl}-1H-1,2,3-triazol-4-yl)methanone] |
